Measurements taken from the CheMixHub viscosity set.

Experiment: xn = mol fraction of the nth substance listed

CC#N + CCCCO
viscosity [mPa·s]
Settings | 298.15 K | 303.15 K | 308.15 K | 313.15 K | 318.15 K | 323.15 K
101 kPa, x1 = 0.055 | 2.123 | 1.695 | 1.365 | – | – | –
101 kPa, x1 = 0.0999 | – | 1.696 | 1.517 | 1.364 | 1.231 | 1.111
101 kPa, x1 = 0.1178 | 1.764 | 1.422 | 1.159 | – | – | –
101 kPa, x1 = 0.1952 | 1.449 | 1.186 | 0.978 | – | – | –
101 kPa, x1 = 0.2 | – | 1.322 | 1.197 | 1.085 | 0.986 | 0.9
101 kPa, x1 = 0.2302 | 1.322 | 1.086 | 0.899 | – | – | –
101 kPa, x1 = 0.2997 | – | 1.054 | 0.957 | 0.876 | 0.803 | 0.738
101 kPa, x1 = 0.3526 | 1.016 | 0.854 | 0.721 | – | – | –
101 kPa, x1 = 0.4 | – | 0.842 | 0.781 | 0.723 | 0.667 | 0.619
101 kPa, x1 = 0.4775 | 0.792 | 0.681 | 0.585 | – | – | –
101 kPa, x1 = 0.5 | – | 0.695 | 0.643 | 0.601 | 0.555 | 0.519
101 kPa, x1 = 0.5911 | 0.615 | 0.538 | 0.472 | – | – | –
101 kPa, x1 = 0.5998 | – | 0.574 | 0.536 | 0.502 | 0.47 | 0.442
101 kPa, x1 = 0.6999 | – | 0.482 | 0.453 | 0.427 | 0.402 | 0.381
101 kPa, x1 = 0.7026 | 0.504 | 0.445 | 0.397 | – | – | –
101 kPa, x1 = 0.7906 | 0.433 | 0.391 | 0.352 | – | – | –
101 kPa, x1 = 0.8 | – | 0.413 | 0.391 | 0.374 | 0.354 | 0.336
101 kPa, x1 = 0.9 | – | 0.362 | 0.345 | 0.329 | 0.315 | 0.301
101 kPa, x1 = 0.9094 | 0.383 | 0.348 | 0.32 | – | – | –
101.3 kPa, x1 = 0.1671 | 1.475 | 1.336 | 1.204 | – | – | –
101.3 kPa, x1 = 0.311 | 1.029 | 0.937 | 0.849 | – | – | –
101.3 kPa, x1 = 0.4362 | 0.77 | 0.706 | 0.65 | – | – | –
101.3 kPa, x1 = 0.5462 | 0.605 | 0.566 | 0.535 | – | – | –
101.3 kPa, x1 = 0.6436 | 0.484 | 0.457 | 0.431 | – | – | –
101.3 kPa, x1 = 0.7303 | 0.441 | 0.408 | 0.391 | – | – | –
101.3 kPa, x1 = 0.8082 | 0.403 | 0.381 | 0.361 | – | – | –
101.3 kPa, x1 = 0.8784 | 0.387 | 0.367 | – | – | – | –
101.3 kPa, x1 = 0.942 | 0.348 | 0.327 | – | – | – | –

CCCCCCCCO + COC(=O)OC
viscosity [mPa·s], 100 kPa
Settings | 293.15 K | 298.15 K | 303.15 K | 308.15 K | 313.15 K | 318.15 K | 323.15 K
x2 = 0.1 | – | – | 4.529 | 3.905 | 3.388 | 2.951 | 2.59
x2 = 0.1003 | 6.22 | 5.35 | 4.58 | 3.94 | 3.41 | 2.97 | 2.61
x2 = 0.1999 | – | – | 3.34 | 2.917 | 2.56 | 2.263 | –
x2 = 0.2001 | 4.4 | 3.86 | 3.45 | 2.93 | 2.61 | 2.24 | 1.99
x2 = 0.2997 | 3.28 | 2.87 | 2.52 | 2.22 | 1.97 | 1.76 | 1.58
x2 = 0.3 | – | – | 2.516 | 2.22 | 1.971 | 1.763 | –
x2 = 0.3999 | – | – | 1.931 | 1.73 | 1.547 | 1.395 | –
x2 = 0.4005 | 2.44 | 2.14 | 1.9 | 1.69 | 1.5 | 1.35 | 1.22
x2 = 0.5 | – | – | 1.505 | 1.358 | 1.229 | 1.119 | –
x2 = 0.5004 | 1.83 | 1.63 | 1.46 | 1.31 | 1.18 | 1.08 | 0.98
x2 = 0.5996 | 1.39 | 1.25 | 1.13 | 1.03 | 0.94 | 0.86 | 0.8
x2 = 0.6 | – | – | 1.183 | 1.079 | 0.984 | 0.903 | –
x2 = 0.7 | – | – | 0.959 | 0.88 | 0.814 | 0.754 | –
x2 = 0.7001 | 1.08 | 0.98 | 0.9 | 0.83 | 0.77 | 0.71 | 0.66
x2 = 0.7999 | – | – | 0.765 | 0.711 | 0.662 | 0.617 | –
x2 = 0.8001 | 0.85 | 0.78 | 0.72 | 0.67 | 0.62 | 0.58 | 0.54
x2 = 0.9 | – | – | 0.633 | 0.591 | 0.554 | 0.523 | –
x2 = 0.9005 | 0.66 | 0.61 | 0.58 | 0.54 | 0.51 | 0.48 | 0.45
